In paper PMC10221159, “Investigation of N-Acetyltransferase 2-Mediated Drug Interactions of Amifampridine: In Vitro and In Vivo Evidence of Drug Interactions with Acetaminophen” (Pharmaceutics, 2023):
Like-named read-outs stand apart in the source and are kept apart here.

Legend:
[1] = In vitro metabolic profile of amifampridine (3-N-acetylamifampridine formation) in rat liver S9 fraction; assay type: in vitro ADME
Description: An in vitro metabolic study was performed to investigate the metabolic profile of amifampridine in the rat liver S9 fraction. The reaction mixture, which consisted of rat liver S9 fraction (2 mg/mL protein) and 2 mM acetyl-CoA in potassium phosphate buffer, was prepared and incubated for 5 min in a thermal mixer (200 oscillations/min) at 37 °C. Then, amifampridine was added to the reaction mixture to make the final concentrations of amifampridine at 2, 10, 20, 50, 100, 500, and 1000 μM. After further incubation for 15 min at 37 °C, 50 μL of the sample was transferred into the tube containing 200 μL of ice-cold potassium phosphate buffer and mixed by vortexing. An amount of 50 μL of the mixture was then transferred into the tube containing 100 μL of internal standard (IS; 5 ng/mL ondansetron in acetonitrile), followed by vortexing and centrifugation at 14,000 rpm for 15 min at 4 °C. The supernatant was transferred into vials for HPLC-tandem mass spectrometry (MS/MS) analysis and the concentration of 3-N-acetylamifampridine was determined.
The Vm and Km values, Michaelis–Menten parameters, were determined by linear regression using Lineweaver–Burk equation, as follows: 1/v=Km/Vmax×1/S+1/Vmax where v is the rate of amifampridine metabolism to 3-N-acetylamifampridine in the S9 fraction, [S] is the concentration of amifampridine, Vmax is the maximum metabolic rate of amifampridine, and Km is the concentration of amifampridine at half Vmax. The intrinsic clearance (CLint) was calculated using Vmax/Km, with the assumption that Km is much greater than [S], as is usual in clinical practice.

[2] = humans, cited from earlier work
[3] = Tissue distribution of amifampridine and 3-N-acetylamifampridine in rats; assay type: in vivo, rat; details: for Kp at 1 h: rat, 60 min after oral amifampridine 2 mg/kg
Description: To investigate the effects of acetaminophen on the tissue distribution of amifampridine and 3-N-acetylamifampridine, rats were sacrificed at 60 min after administration of amifampridine in control and acetaminophen-treated rats (n = 6) as mentioned above, and the tissues, including liver, kidney, heart, lungs, spleen, brain, and muscle tissues, were obtained. Tissue samples were homogenized using a Wheaton^TM Dounce tissue grinder (Wheaton Millipore, Billerica, MA, USA) after adding a three-fold volume of PBS. An amount of 100 μL of tissue homogenates was transferred to the tube and 200 μL of IS solution was then added and vortexed followed by centrifugation at 14,000 rpm for 15 min at 4 °C. The supernatants were transferred to LC vials for quantification. For muscle samples, the supernatant was concentrated using a desiccator and reconstituted with the mobile phase solvent.

[4] = parameters: method as in PMID 25692017; details: NAT2 slow vs fast acetylators; cited from earlier work
[5] = In vivo pharmacokinetic interaction study in rats (plasma); parameters: species or system rat; details: oral amifampridine 2 mg/kg; for AUC(0-inf) / AUC(0-t) / CL/F / Cmax / MRT / Tmax / Vd/F / half-life / CL renal: male, Sprague-Dawley, rat, po, 2 mg/kg; for AUC(0-inf) / AUC(0-t) / CL/F / Cmax / MRT / Tmax / Vd/F / half-life: plasma; for CL renal: urine and plasma, renal clearance
Description: Male Sprague Dawley (SD) rats (7–8 weeks old, 260–330 g) were purchased from Orient Bio, Inc. (Seongnam, Korea). The rats were housed under a light/dark cycle for 12 h and were left for at least a week before the experiment to adapt to the laboratory environment. Water and food were provided ad libitum. The rats were fasted overnight with free access to water prior to pharmacokinetic studies. The protocols for animal experiments were approved in accordance with the Guidelines for Animal Care and Use of Gachon University (approval no.: GIACUC-R2021006; 13 May 2021).
The rats were anesthetized with a mixture of Rompun and Zoletil by intramuscular injection and received an intraperitoneal injection of vehicle (40:60 PEG400:normal saline; n = 8) or 100 mg/kg acetaminophen (n = 8). After 10 min, 2 mg/kg amifampridine (dissolved in saline) was administered orally. Blood samples were collected at 0, 5, 15, 30, 60, 90, 120, 240, and 360 min and centrifuged at 14,000 rpm for 15 min at 4 °C. For analysis of amifampridine and 3-N-acetylamifampridine, 50 μL of plasma samples was mixed with 100 μL IS solution (5 ng/mL ondansetron in acetonitrile) and the mixture was vortexed followed by centrifugation at 14,000 rpm for 15 min at 4 °C. For the analysis of acetaminophen, 200 μL of IS (tolbutamide 200 ng/mL in methanol) was added to the plasma samples which were diluted 10-fold using the blank plasma and then vortexed for one minute. Further, the samples were centrifuged at 14,000 rpm for 15 min at 4 °C. The supernatants were transferred to LC vials for quantification.
Non-compartment analysis (NCA) was performed to calculate the pharmacokinetic parameters for the in vivo study using WinNonlin (Version 8.3. (Pharsight Corporation, Mountain View, CA, USA)). The area under the plasma concentration–time curve from time 0 to infinity (AUCinf) was calculated by the linear trapezoidal method and standard extrapolation using λ, where λ represents the slope of the terminal phase in a semi-log graph for plasma concentration–time profiles. Renal clearance (CLr) was determined by dividing the accumulated amount of drug excreted in the urine by AUCinf.

[6] = 60 min, acetaminophen-treated vs control rats
[7] = acetaminophen-treated (100 mg/kg) vs control rats
[8] = acetaminophen-treated group (100 mg/kg ip)

SMILES: Nc1ccncc1N [amifampridine]
- Vmax ([1]; 3-N-acetylamifampridine formation, rat liver S9, Lineweaver–Burk plot): 5130 ± 1100 pmol/min/mg protein
- intrinsic clearance in liver S9 fraction ([1]; liver S9 fraction, Vmax/Km, rat liver S9, read-out: CLint): 78 ± 11 µL/min/mg
- Km at 15 min ([1]; rat liver S9 fraction, 3-N-acetylamifampridine formation, rat liver S9 (2 mg/mL protein), Lineweaver–Burk plot): 66.6 ± 24.2 µM
- dose excreted via the urine within 24 h ([2]; after administration of amifampridine): 19%
- dose excreted via the urine within 24 h as amifampridine plus 3-N-acetylamifampridine [2]: More than 90%
- elimination half-life [2]: approximately 2.5 h
- increase of concentration in liver [3, 6]: 270.26%
- increase of concentration in muscle [3, 6]: 413.11%
- increase of concentration in spleen [3, 6]: 265.17%
- Kp at 1 h ([3]; Sprague Dawley, brain, acetaminophen 100 mg/kg, read-out: Tissue partition coefficient (Kp), Brain): 0.1
- Kp at 1 h ([3]; Sprague Dawley, brain, control, read-out: Tissue partition coefficient (Kp), Brain): 0.1 ± 0.3
- Kp at 1 h ([3]; Sprague Dawley, heart, acetaminophen 100 mg/kg, read-out: Tissue partition coefficient (Kp), Heart): 0.7 ± 0.5
- Kp at 1 h ([3]; Sprague Dawley, heart, control, read-out: Tissue partition coefficient (Kp), Heart): 0.6 ± 0.5
- Kp at 1 h ([3]; Sprague Dawley, lungs, acetaminophen 100 mg/kg, read-out: Tissue partition coefficient (Kp), Lungs): 2.2 ± 2.8
- Kp at 1 h ([3]; Sprague Dawley, lungs, control, read-out: Tissue partition coefficient (Kp), Lungs): 1.7 ± 1.1
- Kp at 1 h ([3]; Sprague Dawley, spleen, acetaminophen 100 mg/kg, read-out: Tissue partition coefficient (Kp), Spleen): 1.6 ± 1
- Kp at 1 h ([3]; Sprague Dawley, spleen, control, read-out: Tissue partition coefficient (Kp), Spleen): 1 ± 0.5
- decrease of Kp in the kidneys ([3]; acetaminophen-treated vs control rats): 51%
- Kp at 1 h ([3]; male, Sprague-Dawley, kidney, acetaminophen 100 mg/kg, read-out: Tissue partition coefficient (Kp), Kidney): 3.6 ± 0.4
- Kp at 1 h ([3]; male, Sprague-Dawley, kidney, control, read-out: Tissue partition coefficient (Kp), Kidney): 7.4 ± 2.7
- Kp at 1 h ([3]; male, Sprague-Dawley, liver, acetaminophen 100 mg/kg, read-out: Tissue partition coefficient (Kp), Liver): 3 ± 1.5
- Kp at 1 h ([3]; male, Sprague-Dawley, liver, control, read-out: Tissue partition coefficient (Kp), Liver): 3.8 ± 2.6
- Kp at 1 h ([3]; male, Sprague-Dawley, muscle, acetaminophen 100 mg/kg, read-out: Tissue partition coefficient (Kp), Muscle): 0.4 ± 0.2
- Kp at 1 h ([3]; male, Sprague-Dawley, muscle, control, read-out: Tissue partition coefficient (Kp), Muscle): 0.5 ± 0.4
- AUC higher in slow acetylators than in fast acetylators [4]: 5–10 fold
- Cmax higher in slow acetylators than in fast acetylators [4]: approximately 3.5 fold
- higher frequency of drug-related treatment-emergent adverse events in slow than fast acetylators [4]: more than 10 fold
- increase in AUCinf [5, 7]: 185.64%
- increase in Cmax [5, 7]: 208.34%
- AUC(0-inf) [5, 8]: 434 ng·h/mL
- AUC(0-t) [5, 8]: 414 ng·h/mL
- CL/F [5, 8]: 81.7 ± 21.2 mL/min/kg
- Cmax [5, 8]: 200 ± 100 ng/mL
- MRT [5, 8]: 2.08 h
- Tmax [5, 8]: 1 h
- Vd/F [5, 8]: 9.83 ± 4.69 L/kg
- half-life [5, 8]: 1.36 ± 0.416 h
- AUC(0-inf) ([5]; control group): 152 ng·h/mL
- AUC(0-t) ([5]; control group): 141 ng·h/mL
- CL/F ([5]; control group): 225 ± 38.3 mL/min/kg
- Cmax ([5]; control group): 70 ± 20 ng/mL
- MRT ([5]; control group): 2.29 h
- Tmax ([5]; control group): 0.781 h
- Vd/F ([5]; control group): 26.9 L/kg
- half-life ([5]; control group): 1.4 ± 0.352 h
- CL renal [5, 8]: 3.87 ± 0.91 mL/min
- CL renal ([5]; control group): 4.89 ± 1.71 mL/min
